Results published in patent US10682415B2, “Thermogel formulation for combination drug delivery” (Wisconsin Alumni Research Foundation, priority 2013, dated 2020).

Experiments:
[1] = Drug content incorporated in thermogel quantified by RP-HPLC; assay type: physicochemical
Protocol: (§1) The drug delivery system containing a combination of three drugs can be prepared as follows. Paclitaxel (PTX; 6 mg), 17-AAG (6 mg), and rapamycin (RAPA; 3 mg) were combined with 1.5 mL of tent-Butanol (TBA) to obtain a clear solution at 60° C. Separately, cold water was added to PLGA1.5k-PEG1k-PLGA1.5k and the mixture was incubated at refrigeration temperature (4° C.) for 2-3 days to obtain 100 mg/mL of polymer solution. The polymer solution (1.5 mL) was rapidly added to 1.5 mL of drug/TBA mixture (50% TBA). The mixture was rapidly vortexed and warmed to 60° C. for less than one minute to prevent phase separation. The mixture was rapidly frozen with ethanol/dry ice (−72° C.) for 1 hour and lyophilized for 24 hours (below 0.8 bar at −45° C.).
(§2) Samples were diluted with cold water and kept at 4° C. Liquefied samples were passed through about […] (e.g., clear solution (x)) to about 0.2 μm (e.g., clear solution (y)) of a regenerated cellulose membrane filter (RC filter) at 4° C. and concentrations were quantified using RP-HPLC.

[2] = Initial gel formation experiments (stable thermogel with PLGA-PEG-PLGA); assay type: physicochemical; conditions: for Thermogel Formation: drug(s) with PLGA-PEG-PLGA polymer, about 1 mg drug per 10 mg polymer
[3] = Rehydration time, gelation time and physical observation of lyophilized sample and gel; assay type: physicochemical
Protocol: as §1, §2
In general, an elegant lyophilized cake can improve rehydration time and solubility of the lyophilized cake in aqueous solution.

[4] = Drug release kinetics of thermogel at 37° C. (cassette MWCO 20,000, first-order model); assay type: physicochemical
Protocol: The drug release kinetics of the composition at 37° C. was evaluated. Data is shown below in Table 1-3. […] Each cassette (MWCO 20,000) contained 0.3 mL of Triogel (n=3). […] The profile of the release kinetics was fit into a first-order model (Prism ver 5.0), as illustrated in FIG. 2.
The release kinetics of 1-drug thermogels (37° C.) were analyzed. Separately, compositions having 6 mg, 6 mg, and 3 mg of PTX, 17-AAG, and RAPA mixed with 60, 60, and 30 mg of polymers, respectively, in 1.0 mL of water were evaluated. Each cassette (MWCO 20,000) contained 0.3 mL of Thermogel (n=3). Profile of release kinetics was fit into a first-order model (Prism ver 5.0).

[5] = neutral pH; cited from earlier work
[6] = system: ES-2-luc human ovarian cancer cells; assay: In vitro cytotoxicity in ES-2-luc cells

CC(=O)O[C@H]1C(=O)[C@@]2(C)[C@H]([C@H](OC(=O)c3ccccc3)[C@]3(O)C[C@H](OC(=O)[C@H](O)[C@@H](NC(=O)c4ccccc4)c4ccccc4)C(C)=C1C3(C)C)[C@]1(OC(C)=O)CO[C@@H]1C[C@@H]2O [PTX, paclitaxel]
PTX gel incorporation by RP-HPLC analysis ([1]; 6 mg PTX in 150 mg of polymer and 50 wt. % TBA): 5.33 mg | Final level of drug, PTX ([1]; single, two and three drug compositions, initial level 6.0 mg/mL): 5.8 ± 0.5 mg/mL | Thermogel Formation [2]: Yes | time to form a gel at room temperature ([3]; room temperature): less than two minutes | time gel-like form is retained ([3]; room temperature, 6 mg PTX in 150 mg of polymer): more than two weeks | Physical obs. of gel ([3]; single, two and three drug compositions): Good | k: release kinetic constant ([4]; release from Triogel (6 mg/6 mg/3 mg PTX/17-AAG/RAPA, 150 mg polymer, 1 mL water), n = 3): 0.0577 ± 0.0230 h⁻¹ | k (release kinetic constant) ([4]; release from two drug thermogel PTX/17-AAG (6 mg/6 mg in 120 mg polymer, 1 mL water)): 0.2037 ± 0.0575 h⁻¹ | k (release kinetic constant) ([4]; release from two drug thermogel PTX/RAPA (6 mg/3 mg in 90 mg polymer, 1 mL water)): 0.1035 ± 0.0354 h⁻¹ | k (release kinetic constant) ([4]; single drug compositions, n = 3): 0.0682 ± 0.0112 h⁻¹

CC1=C2C[C@H]3[C@@H](CC=C4C[C@@H](O)CC[C@@]43C)[C@@H]2CC[C@]12O[C@@H]1C[C@H](C)CN[C@H]1[C@H]2C [Cyclopamine (CYP), cyclopamine]
Thermogel Formation [2]: No | stable thermogel formation / gel integrity ([2]; warming the 4° C. solution with PLGA-PEG-PLGA to room temperature / 37° C.): a stable thermogel was unable to be prepared

C=CCNC1=C2C[C@@H](C)C[C@H](OC)[C@H](O)[C@@H](C)/C=C(\C)[C@H](OC(N)=O)[C@@H](OC)/C=C\C=C(/C)C(=O)NC(=CC1=O)C2=O [17-AAG, 17-allylamino-17-demethoxygeldanamycin]
water solubility [5]: about 0.1 mg/mL | cytotoxic effect (in words) [6]: did not induce significant cytotoxic effect | IC50 ([6]; drug(s) dissolved in a mixture of DMSO and medium): 0.9336 ± 0.0018 µM

CO[C@H]1C[C@@H]2CC[C@@H](C)[C@@](O)(O2)C(=O)C(=O)N2CCCC[C@H]2C(=O)O[C@H]([C@H](C)C[C@@H]2CC[C@@H](O)[C@H](OC)C2)CC(=O)[C@H](C)/C=C(\C)[C@@H](O)[C@@H](OC)C(=O)[C@H](C)C[C@H](C)/C=C/C=C/C=C/1C [RAPA, rapamycin]
cytotoxic effect (in words) [6]: did not induce significant cytotoxic effect
